Source: ChEMBL document CHEMBL4364346, “Structure optimization of a new class of PPARγ antagonists” (Bioorg Med Chem, 2019)
The source made the active and inactive calls. No cut-off for these calls is given here.

Experiments:
[1] = Metabolic stability in Sprague-Dawley rat liver microsomes assessed as remaining compound at […] incubated for 60 mins; assay type: ADME, Microsome; settings: read-out: Stability
[2] = Metabolic stability in Sprague-Dawley rat liver microsomes assessed as half life at […] incubated for 60 mins; assay type: ADME, Microsome
[3] = AUC (0 to 3 hrs) in Swiss CD1 mouse at 1 mg/kg, ip measured upto 3 hrs by LC-MS analysis; assay type: ADME, organism-based; set-up: dose 1 mg/kg, time < 3 hr, route intraperitoneal; settings: in vivo
[4] = Cmax in Swiss CD1 mouse at 1 mg/kg, ip measured upto 7 hrs by LC-MS analysis; assay type: ADME, organism-based; set-up: dose 1 mg/kg, route intraperitoneal; settings: in vivo
[5] = target: T1, Bile acid receptor (Homo sapiens) (UniProt Q96RI1); test: Antagonist activity at recombinant human pFA-CMV fused FXR LBD transfected in HEK293T cells assessed as reduction in GW4064-induced FXR activation at 1 uM incubated for 12 to 14 hrs by dual glo luciferase reporter gene assay; assay type: cell-based
T1 sequence (whole entry): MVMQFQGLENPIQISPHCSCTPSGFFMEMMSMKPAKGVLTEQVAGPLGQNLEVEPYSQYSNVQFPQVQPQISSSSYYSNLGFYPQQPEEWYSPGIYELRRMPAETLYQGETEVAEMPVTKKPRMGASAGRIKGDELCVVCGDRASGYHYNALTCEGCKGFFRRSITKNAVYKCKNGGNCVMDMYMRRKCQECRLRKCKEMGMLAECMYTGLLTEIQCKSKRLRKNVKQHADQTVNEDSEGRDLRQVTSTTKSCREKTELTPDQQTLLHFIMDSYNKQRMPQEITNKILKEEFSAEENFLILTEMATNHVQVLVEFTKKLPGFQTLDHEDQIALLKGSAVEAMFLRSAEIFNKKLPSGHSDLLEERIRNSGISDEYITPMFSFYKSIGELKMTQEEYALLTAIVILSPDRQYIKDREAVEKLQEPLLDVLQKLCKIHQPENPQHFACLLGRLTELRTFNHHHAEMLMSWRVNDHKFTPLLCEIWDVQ

[6] = Plasma concentration in Swiss CD1 mouse at 10 mg/kg, ip measured upto 4 hrs by LC-MS analysis; assay type: ADME, organism-based
[7] = target: T2, Peroxisome proliferator-activated receptor gamma (Homo sapiens, UniProt P37231); test: Antagonist actvity in pFA-GAL4-DBD fused PPARgamma LBD (unknown origin) transfected in HEK293T cells assessed as inhibition of rosiglitazone-induced PPARgamma transactivation incubated for 24 hrs by luciferase reporter gene assay; assay type: cell-based; settings: read-out: IC50
T2 sequence (P37231 whole entry): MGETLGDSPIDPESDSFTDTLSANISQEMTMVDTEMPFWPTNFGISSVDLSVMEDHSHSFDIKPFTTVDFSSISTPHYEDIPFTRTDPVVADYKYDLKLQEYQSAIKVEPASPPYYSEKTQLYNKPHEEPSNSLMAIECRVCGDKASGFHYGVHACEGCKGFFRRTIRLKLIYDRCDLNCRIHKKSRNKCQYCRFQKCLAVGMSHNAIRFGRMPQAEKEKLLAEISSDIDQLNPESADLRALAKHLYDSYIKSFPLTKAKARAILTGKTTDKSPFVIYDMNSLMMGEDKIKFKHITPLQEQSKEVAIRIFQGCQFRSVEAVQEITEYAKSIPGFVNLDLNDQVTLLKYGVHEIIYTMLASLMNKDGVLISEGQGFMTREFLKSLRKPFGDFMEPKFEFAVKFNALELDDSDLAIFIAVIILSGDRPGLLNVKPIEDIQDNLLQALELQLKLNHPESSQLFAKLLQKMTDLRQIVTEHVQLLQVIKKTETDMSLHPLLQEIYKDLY

[8] = target: T3, Vitamin D3 receptor (Homo sapiens) (UniProt P11473); test: Agonist activity at recombinant human pFA-CMV fused VDR LBD transfected in HEK293T cells assessed as VDR activation at 1 uM incubated for 12 to 14 hrs by dual glo luciferase reporter gene assay; assay type: cell-based
T3 sequence (whole entry): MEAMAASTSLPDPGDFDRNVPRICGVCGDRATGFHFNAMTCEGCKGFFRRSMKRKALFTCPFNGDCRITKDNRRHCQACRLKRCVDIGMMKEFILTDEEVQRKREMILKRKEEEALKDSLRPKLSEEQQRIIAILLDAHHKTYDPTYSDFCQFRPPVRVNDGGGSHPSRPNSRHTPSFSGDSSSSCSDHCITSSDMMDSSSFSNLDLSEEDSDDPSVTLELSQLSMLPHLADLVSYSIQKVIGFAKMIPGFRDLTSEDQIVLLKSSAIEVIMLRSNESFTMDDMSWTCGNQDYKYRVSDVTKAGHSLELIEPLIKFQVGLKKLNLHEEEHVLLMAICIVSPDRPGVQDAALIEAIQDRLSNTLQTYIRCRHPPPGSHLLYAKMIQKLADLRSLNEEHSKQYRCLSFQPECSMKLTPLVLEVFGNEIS

[9] = target: T4, Peroxisome proliferator-activated receptor alpha (Homo sapiens) (UniProt Q07869); test: Agonist activity at recombinant human pFA-CMV fused PPARalpha LBD transfected in HEK293T cells assessed as PPARalpha activation at 1 uM incubated for 12 to 14 hrs by dual glo luciferase reporter gene assay; assay type: cell-based
T4 sequence (whole entry): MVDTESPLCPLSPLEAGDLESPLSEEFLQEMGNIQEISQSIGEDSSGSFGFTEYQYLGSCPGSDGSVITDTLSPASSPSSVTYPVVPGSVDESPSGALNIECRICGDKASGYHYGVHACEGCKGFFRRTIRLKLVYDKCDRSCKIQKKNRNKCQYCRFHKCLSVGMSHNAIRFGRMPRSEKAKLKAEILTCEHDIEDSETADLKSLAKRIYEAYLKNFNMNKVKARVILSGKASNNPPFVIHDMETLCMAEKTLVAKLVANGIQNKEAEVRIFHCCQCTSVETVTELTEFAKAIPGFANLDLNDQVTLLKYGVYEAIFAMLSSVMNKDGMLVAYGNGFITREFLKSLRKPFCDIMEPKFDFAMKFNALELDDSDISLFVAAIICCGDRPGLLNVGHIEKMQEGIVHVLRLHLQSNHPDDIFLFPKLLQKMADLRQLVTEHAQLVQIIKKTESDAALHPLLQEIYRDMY

[10] = target: Oxysterols receptor LXR-alpha (Homo sapiens) (UniProt Q13133); test: Antagonist activity at recombinant human pFA-CMV fused LXRalpha LBD transfected in HEK293T cells assessed as reduction in T0901317-induced LXRalpha activation at 1 uM incubated for 12 to 14 hrs by dual glo luciferase reporter gene assay
Oxysterols receptor LXR-alpha (Homo sapiens), sequence (Q13133 whole entry, looked up, the tested form may be a part): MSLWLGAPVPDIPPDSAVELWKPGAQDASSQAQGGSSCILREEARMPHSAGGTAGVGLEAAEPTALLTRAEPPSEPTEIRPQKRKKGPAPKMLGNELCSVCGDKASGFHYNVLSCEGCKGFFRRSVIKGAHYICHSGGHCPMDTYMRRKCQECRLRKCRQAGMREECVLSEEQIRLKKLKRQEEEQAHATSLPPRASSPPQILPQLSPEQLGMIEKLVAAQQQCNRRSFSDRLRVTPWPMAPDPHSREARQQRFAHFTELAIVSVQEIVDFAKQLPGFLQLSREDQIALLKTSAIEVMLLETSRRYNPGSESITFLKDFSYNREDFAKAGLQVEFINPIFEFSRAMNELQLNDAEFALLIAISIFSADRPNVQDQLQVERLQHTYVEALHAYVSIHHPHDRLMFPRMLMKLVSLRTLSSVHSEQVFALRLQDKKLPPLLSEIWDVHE

[11] = target: T3, Vitamin D3 receptor (Homo sapiens); test: Antagonist activity at recombinant human pFA-CMV fused VDR LBD transfected in HEK293T cells assessed as calcitrol-induced VDR activation at 1 uM incubated for 12 to 14 hrs by dual glo luciferase reporter gene assay; assay type: cell-based
[12] = Tmax in Swiss CD1 mouse at 10 mg/kg, ip measured upto 7 hrs by LC-MS analysis; assay type: ADME, organism-based; settings: in vivo

| remaining at 1 h [1] | half-life [2] | AUC(0-t) at 3 h [3] | Cmax [4] | Activity [5] | concentration at 4 h [6] | IC50 [7] | Activity [8] | Activity [9] | Activity [10] | Activity [11] | Tmax [12] | Compound |
| --- | --- | --- | --- | --- | --- | --- | --- | --- | --- | --- | --- | --- |
| 81% | > 60 min | 112 ng·h/mL | 74 nM | inactive | 59 nM | 4.7 µM | inactive | inactive | inactive | inactive | 0.25 h | CCC/C(=C\c1cc(OCc2ccc3nc(C(F)(F)F)cc(OC)c3c2)ccc1OCCN1CCN(C)CC1)C(=O)O |
| 95% | > 60 min | 101 ng·h/mL | 60 nM | inactive | 115 nM | 2.5 µM | inactive | inactive | inactive | inactive | 2 h | CCC/C(=C\c1cc(OCc2ccc3nc(C(F)(F)F)cc(OC)c3c2)ccc1OCC1CCN(C)CC1)C(=O)O |
